Experimental data: patent publication US5430150A, “Retroviral protease inhibitors” (American Cyanamid Company, priority 1992, dated 1995)

Tests used:
[1] = target: HIV-1 protease (Human immunodeficiency virus type 1 group M subtype B, UniProt P04585); experiment: biochemical; type: biochemical; conditions: Activity of Compounds as Enzyme Inhibitor
Experimental: IC50 values for enzyme inhibition are determined using HIV-1 and Amersham's HIV proteinase [^125 I]-scintillation proximity assay (SPA).
Amersham's HIV proteinase [^125 I]-SPA system is a commercial assay incorporating the scintillation proximity assay (SPA) principle available from Amersham International PLC, Bucks, England.
The SPA microspheres provided by Amersham have the substrate linked directly to the surface through a streptavidin-biotin link. The substrate is a 12 residue peptide designed specifically for this application utilizing current knowledge of known cleavage sites for the enzyme and analogue substrate studies. The sequence of the substrate is: [drawing 22]
The peptide is monoiodinated on the tyrosine residue and biotinylated through the epsilon-NH2 group on the lysine. It is linked to the SPA bead via a streptavidin-link. The beads are suspended in a buffer consisting of 5 mM DTT, 1 mM EDTA, 10% w/v glycerol, 0.05% W/v sodium azide, 0.01% v/v Triton X-100 in 25 mM sodium citrate buffer pH 5.5.
The enzyme cleaves at the Phe-Phe bond releasing the ^125 I fragment from the bead. This event causes the removal of detectable signal from the microsphere. […] The rate of reduction in signal is proportional to the activity of the enzyme. The obtained data is used to calculate the IC50 values found in Table 1.

[2] = mouse plasma level after IP or oral administration; type: in vivo; conditions: mice; for time for which plasma concentrations of >0.13 microgram/ml are achieved: aqueous liposomal formulation
[3] = system: HIV-1 strain IIIB in T lymphoid MT-2 cell lines; experiment: inhibition of growth of HIV-1 strain IIIB in T lymphoid MT-2 cell lines (metabolic MTT dye); type: cell-based
Experimental: In Table 2, data is shown for the ability of these compounds to inhibit growth of HIV-1 strain IIIB in T lymphoid MT-2 cell lines. The cell line is challenged by free virons selected to result in 90-95% cell death (CPE) by day 5. The protease inhibitor compound is then added in the stated concentration. After 5 days, the surviving cells are measured using metabolic MTT dye.

IC50 [1]: 72.8 nM
time for which plasma concentrations of >0.13 microgram/ml are achieved ([2]; IP 8.3 mg/kg): 2.8 h
time for which plasma concentrations of >0.13 microgram/ml are achieved ([2]; IP 16.6 mg/kg): 4.2 h
time for which plasma concentrations >0.13 microgram/ml are maintained ([2]; oral 16.6 mg/kg (FIG. 1)): 2 h
Compound: CC[C@H](C)[C@H](NC(=O)[C@H](Cc1ccccc1)CC(O)CN1C[C@H]2CCCC[C@H]2C[C@H]1C(=O)NC(C)(C)C)C(=O)NCc1nc2ccccc2[nH]1 (single isomer, unassigned) [Example 24B, [3S-[2[alphaS*(1R*,2R*),gammaS*(or R*)],3alpha,4abeta,8abeta]]-N-[1-[[(1H-Benzimidazol-2-ylmethyl)amino]carbonyl]-2-methylbutyl]-3-[[(1,1-dimethylethyl)amino]carbonyl]decahydro-gamma-hydroxy-alpha-(phenylmethyl)-2-isoquinolinepentanamide]
% Inhibition at concentration 0.010 μg/ml ([3]; 0.010 μg/ml, 5 days): 16.2%
% Inhibition at concentration 0.039 μg/ml ([3]; 0.039 μg/ml, 5 days): 81.4%
% Inhibition at concentration 0.156 μg/ml ([3]; 0.156 μg/ml, 5 days): 93.0%
% Inhibition at concentration 0.625 μg/ml ([3]; 0.625 μg/ml, 5 days): 94.7%
% Inhibition at concentration 2.5 μg/ml ([3]; 2.5 μg/ml, 5 days): 94.9%
inhibition of HIV-1 strain IIIB viral growth in MT-2 cell lines ([3]; concentration >0.13 microgram/ml): > 90%
